Where two headings read alike, the source gives them in different places.
Key:
[1] = test system: HIV-1 integrase mutant virus Y143R; experiment: Single cycle infectivity assay in HeLa P4-2 cells, integrase mutant Y143R virus; assay type: cell-based; conditions: fold shift in IC50 versus wild type IIIB
Summary of the method: (§1)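 HeLa P4-2 cells used in a single-cycle acute HIV-1 infection assay. Wild-type IIIB or integrase mutant viruses made by site-directed mutagenesis of proviral plasmids and produced by transfection of 293T cells.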

HIV-1 = experiment: Inhibition of acute HIV-1 infection of T-lymphoid cells (spread assay); assay type: cell-based; conditions: 10% FBS, read-out: IC95 (nM) in the presence of 10% FBS
Description: Assays for the inhibition of acute HIV-1 infection of T-lymphoid cells were conducted in accordance with Vacca, J. P. et al., Proc. Natl. Acad. Sci. USA 1994, 91: 4096.

HIV-1 integrase = biological target: T1, HIV-1 integrase (Human immunodeficiency virus type 1 group M subtype B, UniProt P04585); experiment: HIV integrase assay: strand transfer catalyzed by recombinant integrase; assay type: biochemical; conditions: strand transfer activity
T1 construct: strand transfer activity of HIV-1 integrase
Description: Assays for the strand transfer activity of HIV-1 integrase were conducted in accordance with WO 02/30930 for recombinant integrase.
Further description on conducting the assay using preassembled complexes is found in Wolfe, A. L. et al., J. Virol. 1996, 70: 1424-1432, Hazuda et al., J. Virol. 1997, 71: 7005-7011; Hazuda et al., Drug Design and Discovery 1997, 15: 17-24; and Hazuda et al., Science 2000, 287: 646-650.

[2] = test system: HIV-1 integrase mutant virus N155H; experiment: Single cycle infectivity assay in HeLa P4-2 cells, integrase mutant N155H virus; assay type: cell-based; conditions: fold shift in IC50 versus wild type IIIB
Summary of the method: as §1

[3] = test system: HIV-1 integrase mutant virus Q148R; experiment: Single cycle infectivity assay in HeLa P4-2 cells, integrase mutant Q148R virus; assay type: cell-based; conditions: fold shift in IC50 versus wild type IIIB
Summary of the method: as §1

HIV-1 wild type IIIB = experiment: Single cycle infectivity assay in HeLa P4-2 cells, wild type virus; assay type: cell-based
Summary of the method: as §1

[4] = test system: HIV-1 integrase mutant virus G140S/Q148H; experiment: Single cycle infectivity assay in HeLa P4-2 cells, integrase mutant G140S/Q148H virus; assay type: cell-based; conditions: fold shift in IC50 versus wild type IIIB
Summary of the method: as §1

[5] = Human immunodeficiency virus 1, IIIB, HeLaP4-2, wild type IIIB

For `CC1C2CCC(N(C)C(=O)C(=O)N(C)C)(CC2)c2nc(C(=O)NCc3ccc(F)cc3)c(O)c(=O)n21` (single isomer, unassigned) [Example 13A, N-(4-{[(4-fluorobenzyl)amino]carbonyl}-5-hydroxy-8-methyl-6-oxo-3,7-diazatricyclo[7.2.2.0^2,7]trideca-2,4-dien-1-yl)-N′,N′,N″-trimethylethanediamide], the “Y143R (shift)” value [1] was 2 fold, the IC95 (HIV-1) was 8.6 nM and the IC50 (HIV-1 integrase) was 0.013 µM. The “N155H (shift)” value [2] was 2 fold, the “Q148R (shift)” value [3] was 1 fold and the IC50 (HIV-1 wild type IIIB; [5]) was 0.007 µM. The “G140S/Q148H (shift)” value [4] was 2 fold.
For `CN(C)C(=O)C(=O)N(C)C12CCC(Cn3c1nc(C(=O)NCc1ccc(F)cc1)c(O)c3=O)OC2` (single isomer, unassigned) [Example 10B, N-(4-{[(4-Fluorobenzyl)amino]carbonyl}-5-hydroxy-6-oxo-10-oxa-3,7-diazatricyclo[7.2.2.0^2,7]trideca-2,4-dien-1-yl)-N′,N′,N′-trimethylethanediamide], the “Y143R (shift)” value [1] was 6 fold, the IC95 (HIV-1) was 15 nM and the IC50 (HIV-1 integrase) was 0.014 µM. The “N155H (shift)” value [2] was 18 fold, the “Q148R (shift)” value [3] was 22 fold and the IC50 (HIV-1 wild type IIIB; wild type IIIB) was 0.03 µM. The “G140S/Q148H (shift)” value [4] was 12 fold.
For `CCN(C(=O)C(=O)N(C)C)C12CCC(Cn3c1nc(C(=O)NCc1ccc(F)cc1)c(O)c3=O)OC2` (single isomer, unassigned) [Example 12B, N-Ethyl-N-(4-{[(4-fluorobenzyl)amino]carbonyl}-5-hydroxy-6-oxo-10-oxa-3,7-diazatricyclo[7.2.2.0^2,7]trideca-2,4-dien-1-yl)-N′,N′-dimethylethanediamide], the “Y143R (shift)” value [1] was 7 fold, the IC95 (HIV-1) was 19 nM and the IC50 (HIV-1 integrase) was 0.018 µM. For the same molecule, the “N155H (shift)” value [2] was 56 fold, the “Q148R (shift)” value [3] was 32 fold and the IC50 (HIV-1 wild type IIIB; wild type IIIB) was 0.007 µM. The “G140S/Q148H (shift)” value [4] was 240 fold.
With `CN(C)C(=O)C(=O)NC12CCC(CC1)Cn1c2nc(C(=O)NCc2ccc(F)cc2)c(O)c1=O` [Example 5, N′-{2-[(4-fluorobenzyl)carbamoyl]-3-hydroxy-4-oxo-6,7,8,9-tetrahydro-7,10-ethanopyrimido[1,2-a]azepin-10(4H)-yl}-N,N-dimethylethanediamide] the “Y143R (shift)” value [1] was 1 fold, the IC95 (HIV-1; Human immunodeficiency virus 1, T-lymphoid) was < 3.9 nM and the IC50 (HIV-1 integrase) was 0.033 µM. The “N155H (shift)” value [2] was 2 fold, the “Q148R (shift)” value [3] was 1 fold and the IC50 (HIV-1 wild type IIIB; [5]) was 0.0067 µM. For the same molecule, the “G140S/Q148H (shift)” value [4] was 9 fold.
`Cc1cc(CNC(=O)c2nc3n(c(=O)c2O)CC2CCC3(N(C)C(=O)C(=O)N(C)C)CO2)ccc1F` (single isomer, unassigned) [Example 11A] was tested, and the “Y143R (shift)” value [1] was 2 fold, the IC95 (HIV-1) was 17 nM and the IC50 (HIV-1 integrase) was 0.037 µM. For the same molecule, the “N155H (shift)” value [2] was 10 fold, the “Q148R (shift)” value [3] was 8 fold and the IC50 (HIV-1 wild type IIIB; wild type IIIB) was 0.021 µM. The “G140S/Q148H (shift)” value [4] was >79 fold.

— US20120022045A1, “BRIDGED COMPOUNDS AS HIV INTEGRASE INHIBITORS” (priority 2009, published 2012)
